Assay results: publication PMC10009108, “Design, synthesis and screening of indole acetic acid-based tri-azo moieties as antioxidants, anti-microbial and cytotoxic agents” (Frontiers in Pharmacology, 2023)
Values after ≈ are worked out from the molar mass of the structure shown. One block for each compound: values may come before it.

Experiments:
[1] = system: Aspergillus niger (FCBP-0198); test: Antifungal disc diffusion assay; type: cell-based; settings: Aspergillus niger; 20 μg/disc
Description: (§1) The antifungal response to these chemical moieties was evaluated through a procedure designated by ([Zahra et al., 2017]). Amphotericin B (4 mg/mL DMSO) is used as + ve control and DMSO as-ve one (5 μL/disc). Sterile SDA-coated plates were used, on which 100 µL of suspension of spores for each strain (previously reaped-in-Tween-20 solution) was spread. Discs of sterile filter paper containing 5 µL of sample solution (4 mg/mL DMSO) were kept on plates and incubated for 2 days at 28°C. Zones of inhibition were recorded.
(§2) The Synthetic compound library was subjected to an antifungal assay using five different strains of Fungai, i.e., Fusarium solani (FCBP-0291), Aspergillus fumigatus (FCBP-66), Aspergillus flavus (FCBP-0064), Aspergillus niger (FCBP-0198) and Mucor species (FCBP-0300). Amphotericin B was the standard drug used. […] The outcomes are concise in Table 5.

[2] = system: Aspergillus flavus (FCBP-0064); test: Antifungal disc diffusion assay; type: cell-based; settings: Aspergillus flavus; 20 μg/disc
Description: as §1, §2

[3] = system: Fusarium solani (FCBP-0291); test: Antifungal disc diffusion assay; type: cell-based; settings: Fusarium solani, 20 μg/disc; read-out: Zone of inhibition, F. solani
Description: as §1, §2

[4] = system: Aspergillus fumigatus (FCBP-66); test: Antifungal disc diffusion assay; type: cell-based; settings: Aspergillus fumigatus; 20 μg/disc
Description: as §1, §2

[5] = system: Mucor species (FCBP-0300); test: Antifungal disc diffusion assay; type: cell-based; settings: Mucor; 20 μg/disc
Description: as §1, §2

in vivo = test: in vivo
Description: The cytotoxic evaluation was accomplished using the decorum designed by ([Khan et al., 2011]). To a plate of 96 wells, artificial seawater and nauplii were added. Test samples were taken in wells (40, 20, 10, 5 μg/mL) after making up the final volume with seawater, the plates were left uncovered under the lamp, and after 24 h, the number of surviving larvae was calculated. For samples having ≥50% mortality, the median lethal conc was calculated using the table curve software, Doxorubicin was used as + ve control, and DMSO was the -ve. The percentage of killed organisms was found using the formula. Percentage Mortality=No of dead shrimps÷Total Number of Shrimps×100
The results of all the experiments were articulated as mean ± SD. Each test was performed in triplicate. TAC assay was analyzed by one-way analysis of variance (ANOVA) following DUNCAN’S test using the statistical package for social sciences 18 and p < 0.05 was considered as significant where appropriate. For samples having ≥50% mortality, the median lethal concentration (LC50) was calculated using the table curve software.
This evaluation test forms the basis for the bioactive scanning of compounds for their potential as anti-cancer moieties, to be investigated on a large scale ([Amanullah et al., 2012]). […] Similarities between Artemia salina and mammalian cells have been reported due to DNA-dependent RNA polymerases ([Birndorf et al., 1975]). These Schiff bases were investigated for their cytotoxic potential. […] Doxorubicin was used as the positive control.

[6] = system: Staphylococcus aureus (ATCC-6538); test: Antibacterial assay, micro broth dilution; type: cell-based; settings: ATCC6538, read-out: S. aureus MIC
Excerpt: (§3) The micro broth dilution method was used to establish the antibacterial potential of test samples against Staphylococcus aureus (ATCC-6538), Bacillus subtilis (ATCC-6633), Escherichia coli (ATCC-25922), Klebsiella pneumoniae (ATCC-1705), and Pseudomonas aeruginosa (ATCC-15442) and for the resistant strains of MRSA Staphylococcus aureus, P. aeruginosa and Escherichia coli. The procedure used is described by ([Sarker et al., 2007]). Bacterial inoculum was formed under aseptic conditions keeping the density near 5 × 10^4 CFU/mL in pre-autoclaved nutrient broth. Test samples of an aliquot of 5 µL were shifted to labeled wells of 96 well plates, and after that addition of 195 µL of nutrient broth; was accomplished. After that, a 2-fold serial dilution of every sample was arranged to get final concentrations of 12.5 μg/mL. Then, with the help of a micropipette, 195 µL of bacterial culture of respective strains was poured into each well; further advancement was incubating of plates for 30 min at the temperature of 37°C. […] Incubation of plates was again carried out at 37°C for 1 day, absorbance was noted, and net change in turbidity was the difference between two values of absorbance.
(§4) Schiff base tri-azo compounds were investigated for antibacterial potential. […] 6.25 μg/mL for 5b and 5g, and the least, Table 4 3.12 μg/mL was for 5f. […] Substituents with electron-withdrawing attributes, e.g., -NO2, -Cl, -OH on the aromatic ring, assert a great impact on the antibacterial activity of synthetic compounds. It is also observed that an increase in the number of -OH groups tend to enhance the activity ([Hosamani and Shingalapur, 2011]). Due to the difference in cell-wall composition of Gram + ve and -ve bacteria, different compounds show different features towards the same micro-organism ([Goszczyn’ska et al., 2015]).

[7] = system: Pseudomonas aeruginosa (ATCC-15442); test: Antibacterial assay, micro broth dilution; type: cell-based; settings: ATCC15442
Excerpt: as §3, §4

[8] = system: Escherichia coli (ATCC-25922); test: Antibacterial assay, micro broth dilution; type: cell-based; settings: ATCC25922, read-out: E. coli MIC
Excerpt: as §3, §4

[9] = system: Klebsiella pneumoniae (ATCC-1705); test: Antibacterial assay, micro broth dilution; type: cell-based; settings: ATCC1705
Excerpt: as §3, §4

resistant P. aeruginosa = test: Antibacterial assay, resistant strains; type: cell-based; settings: resistant strain
Excerpt: as §3, §4

MRSA [10] = test: Antibacterial assay, resistant strains; type: cell-based; settings: Staphylococcus aureus, resistant strain
Excerpt: as §3, §4

resistant S. aureus = test: Antibacterial assay, resistant strains; type: cell-based, Staphylococcus aureus; settings: resistant strain
Excerpt: as §3, §4

[11] = system: Pseudomonas aeruginosa (ATCC-15442); test: Antibacterial assay, micro broth dilution; type: cell-based; parameters: key: Active = Bacterial activity; --- = no activity; settings: 25 μg/mL
[12] = system: Escherichia coli (ATCC-25922); test: Antibacterial assay, micro broth dilution; type: cell-based; parameters: key: Active = Bacterial activity; --- = no activity; settings: 25 μg/mL
[13] = system: Bacillus subtilis (ATCC-6633); test: Antibacterial assay, micro broth dilution; type: cell-based; parameters: key to Antibacterial activity, Bacillus subtilis: Activity: Active = Bacterial activity; --- = no activity
Excerpt: as §3, §4

[14] = system: Klebsiella pneumoniae (ATCC-1705); test: Antibacterial assay, micro broth dilution; type: cell-based; parameters: key: Active = Bacterial activity; --- = no activity; settings: 25 μg/mL
resistant E.coli = test: Antibacterial assay, resistant strains; type: cell-based, Escherichia coli; settings: resistant strain
Excerpt: as §3, §4

[15] = system: Staphylococcus aureus (ATCC-6538); test: Antibacterial assay, micro broth dilution; type: cell-based; parameters: key: Active = Bacterial activity; --- = no activity; settings: 25 μg/mL
MRSA [16] = test: Antibacterial assay, resistant strains; type: cell-based, Staphylococcus aureus; settings: 25 μg/mL; resistant strain
[17] = system: Streptomyces 85 E strains; test: Protein kinase inhibition assay; type: cell-based; parameters: key: Active = Bacterial activity; --- = no activity; settings: Sample Concentration = 20 μg/mL; Surfactin B 20 μg/mL
Description: The protocol followed for this is mentioned ([Fatima et al., 2015]). To assess the test compound’s inhibitory potential, Streptomyces 85 E strains were used, which were refreshed in tryptone soya broth at 37 for 1 day. Spores from refreshed cultures were utilized to prepare the bacterial culture. 100 μg compound was loaded on 5 mm discs of filter paper. These were kept on sowed plates. DMSO-permeated discs were the -ve control. The incubation period was 7 days, and outcomes were stated as bald and clear zones of inhibition.
These synthetic products were evaluated to estimate the inhibitory potential for protein kinase of […] 85 E. Protein kinase is involved with the mycelium production of this species, so the growth patterns were observed as the bald zone. […] One of the propitious targets in cancer treatment is the inhibition of protein kinases. Protein phosphorylation by protein kinases at various residues regulates diverse biological processes, which may include apoptosis, proliferation and differentiation of cells. Deregulation at any step in early tumorigenesis may lead to cancer ([Yao et al., 2011]). Aerial hyphae formation in Streptomyces depends upon protein kinase activity; this scenario is exploited in this test; to inquire about these compounds’ kinase inhibition potential and to look at their anti-cancer potential. The advantage of using Streptomyces for kinase inhibition assay is its predisposition to a wide range of eukaryotic cells. Whole-cell assay of Streptomyces not only identifies the compound’s cytotoxic potential but also identifies signal transduction inhibitors for various activities, e.g., antitumor, anti-mycobacterial, and anti-infective ([Waters et al., 2002]). […] Activity with a bald zone of 10.5 mm and a clear zone of 7.5 mm, following is 5a with a bald zone of 9 mm and a clear zone of 6 mm, and for 5g, values are 7.5 and 6 mm, respectively. It means that these compounds have the potential for protein kinase inhibition as well as the toxicity of the compound.

[18] = system: Streptomyces 85 E strains; test: Protein kinase inhibition assay; type: cell-based; settings: Sample Concentration = 20 μg/mL; Surfactin B 20 μg/mL

Compound: C[C@@H]1[C@H](O)[C@@H](C)/C=C/C=C/C=C/C=C/C=C/C=C/C=C/[C@H](O[C@@H]2O[C@H](C)[C@@H](O)[C@H](N)[C@@H]2O)C[C@@H]2O[C@](O)(C[C@@H](O)C[C@@H](O)[C@H](O)CC[C@@H](O)C[C@@H](O)CC(=O)O[C@H]1C)C[C@H](O)[C@H]2C(=O)O [Amphotericin B, reference compound]
zone of inhibition at 20 µg/disc [1]: 12.5 mm | zone of inhibition at 20 µg/disc [2]: 12 mm | zone of inhibition at 20 µg/disc [3]: 11.5 mm | zone of inhibition at 20 µg/disc [4]: 10 mm | zone of inhibition at 20 µg/disc [5]: 11.5 mm

Compound: COc1cccc2c1C(=O)c1c(O)c3c(c(O)c1C2=O)C[C@@](O)(C(=O)CO)C[C@@H]3O[C@H]1C[C@H](N)[C@H](O)[C@H](C)O1 [Doxorubicin, reference compound]
LC50 at 24 h (in vivo): 5.7 µg/mL (≈ 10.5 µM)

MIC [6]: 3.12 µg/mL (≈ 9.42 µM) | MIC [7]: 3.12 µg/mL (≈ 9.42 µM) | MIC [8]: 3.12 µg/mL (≈ 9.42 µM) | MIC [9]: 3.12 µg/mL (≈ 9.42 µM) | MIC (resistant P. aeruginosa; Pseudomonas aeruginosa): 3.12 µg/mL (≈ 9.42 µM) | MIC (MRSA [10]): 3.12 µg/mL (≈ 9.42 µM) | MIC (resistant S. aureus; Staphylococcus aureus): 3.12 µg/mL (≈ 9.42 µM) | MIC ([13]; Bacillus subtilis, ATCC6633): 3.12 µg/mL (≈ 9.42 µM) | MIC (resistant E.coli; Escherichia coli): 3.12 µg/mL (≈ 9.42 µM)
Compound: O=C(O)c1cn(C2CC2)c2cc(N3CCNCC3)c(F)cc2c1=O [Ciprofloxacin, reference compound]
Antibacterial activity, resistant P. aeruginosa: Activity (resistant P. aeruginosa; 25 μg/mL): Active | Antibacterial activity, resistant S. aureus: Activity (resistant S. aureus; 25 μg/mL): Active | Antibacterial activity, Pseudomonas aeruginosa: Activity [11]: Active | Antibacterial activity, E. coli: Activity [12]: Active | Antibacterial activity, Bacillus subtilis: Activity ([13]; 25 μg/mL): Active | Antibacterial activity, Klebsiella pneumoniae: Activity [14]: Active | Antibacterial activity, resistant E.coli: Activity (resistant E.coli; 25 μg/mL): Active | Antibacterial activity, S. aureus: Activity [15]: Active | Antibacterial activity, MRSA: Activity (MRSA [16]): Active

Compound: Surfactin B [reference compound]
Clear zone [17]: --- | Bald zone [18]: 22.3 mm
